The target of experiment [1] is T1, PAT1 (murine slc26a6) (Mus musculus, UniProt Q8CIW6).
T1 construct: host or cells: Fischer rat thyroid (FRT) cells, lentiviral transduction (pLVX-IRES-mCherry-slc26a6), clonal line FRT-YFP-slc26a6
T1 sequence (Q8CIW6 24-758 limits assumed): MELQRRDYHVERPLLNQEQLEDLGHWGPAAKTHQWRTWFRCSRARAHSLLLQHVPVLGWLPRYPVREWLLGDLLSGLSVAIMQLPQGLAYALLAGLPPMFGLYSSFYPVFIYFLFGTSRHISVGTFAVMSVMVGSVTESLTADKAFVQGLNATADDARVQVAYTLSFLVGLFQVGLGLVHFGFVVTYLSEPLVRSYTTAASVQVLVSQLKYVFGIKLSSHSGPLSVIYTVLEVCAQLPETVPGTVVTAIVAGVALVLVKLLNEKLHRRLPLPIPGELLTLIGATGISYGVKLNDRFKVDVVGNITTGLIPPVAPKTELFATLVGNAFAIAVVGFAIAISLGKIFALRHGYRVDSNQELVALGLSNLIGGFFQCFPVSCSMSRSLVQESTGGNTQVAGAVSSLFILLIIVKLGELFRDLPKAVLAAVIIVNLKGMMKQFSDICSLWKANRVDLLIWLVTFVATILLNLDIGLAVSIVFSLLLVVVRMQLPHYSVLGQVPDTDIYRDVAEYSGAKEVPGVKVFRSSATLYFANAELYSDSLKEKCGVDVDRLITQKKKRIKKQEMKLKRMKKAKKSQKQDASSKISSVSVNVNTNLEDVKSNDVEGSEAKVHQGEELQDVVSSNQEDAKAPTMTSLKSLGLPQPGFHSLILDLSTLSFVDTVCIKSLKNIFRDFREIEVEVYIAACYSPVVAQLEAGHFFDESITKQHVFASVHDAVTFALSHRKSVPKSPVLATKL
Kind of experiment: PAT1-mediated Cl-/I- exchange, YFP fluorescence quenching in FRT cells. In kind it is cell-based. The method, then: A small-molecule screen was developed to identify PAT1 inhibitors utilizing transfected FRT cells expressing PAT1 (murine slc26a6) together with a halide-sensing cytoplasmic YFP (Figure 1A). Adherent cells in a 96-well format were subjected to an inward gradient of I^– to drive exchange of I^– for Cl^– and consequent quenching of the YFP fluorescence signal.
A collection of approximately 50,000 diverse, drug-like synthetic small molecules (ChemDiv) was screened at a concentration of 25 μM using a Beckman Coulter BioMek FX liquid handling platform with FLUOstar OMEGA plate readers (BMG Labtech). FRT-YFP-slc26a6 cells were plated in 96-well black-walled, clear-bottom plates (Corning Life Sciences) at a density of 20,000 cells/well and cultured for 48 hours until confluent. Cells were washed twice in PBS and incubated for 10 minutes prior to assay in 100 μl PBS containing test compounds. For assay of slc26a6 function, baseline cellular fluorescence was measured for 2 seconds, after which 100 μl NaI-substituted PBS (140 mM NaCl replaced by 140 mM NaI) was added by syringe pump to drive Cl^–/I^– exchange. The initial rate of Cl^–/I^– exchange was determined by single exponential regression of the fluorescence time course. All assay plates contained wells with negative (1% DMSO) and positive (500 μM niflumic acid) controls. For structure-activity relationship studies, analogs of active compounds were purchased from ChemDiv.

Experiment [2] has as its system TMEM16A. Put plainly: Selectivity: I- influx in FRT cells coexpressing YFP and TMEM16A. In kind it is cell-based. The following applies: 25 μM. The method, then: PAT1inh-B01 selectivity was studied by testing its effects on related SLC26A family anion transporters and the Cl^– channel TMEM16A. These measurements used a similar Cl^–/I^– exchange protocol, but FRT cells separately expressed each of the SLC26A family members or TMEM16A. […] PAT1inh-B01 selectivity was also tested by short-circuit current (Isc) in well-differentiated human bronchial epithelial (HBE) cells, which have a complex ion transport mechanism that includes cystic fibrosis transmembrane conductance regulator (CFTR), epithelial Na^+ channel (ENaC), and Ca^+2-activated chloride channels (CaCCs) ([13]). […] Potential PAT1inh-B01 cytotoxicity was studied in FRT cells.
Figure 3 PAT1inh-B01 selectivity and cytotoxicity. […] Cl^–/I^– exchange or I^– influx measured in FRT cells coexpressing YFP and SLC26A isoforms or TMEM16A, with data shown for 25 μM PAT1inh-B01, DMSO vehicle control, and 500 μM niflumic acid (positive control for SLC26A transporters) or 10 μM TMinh-23 (positive control for TMEM16A). […] (C) (left) Short-circuit current (Isc) in well-differentiated HBE cells measured in the absence (top) and presence (bottom) of 25 μM PAT1inh-B01. […]
YFP-based cellular assays of slc26a3, slc26a4, SLC26A9, and TMEM16A function were performed as described previously ([7]). […] The activities of ENaC, CFTR, and CaCC were determined using well-differentiated HBE cells as described previously ([13]). […]

The record followed here is article PMC8262356, “SLC26A6-selective inhibitor identified in a small-molecule screen blocks fluid absorption in small intestine” (JCI Insight, 2021).

The structures appear in SMILES notation. Several values for one entry are separate records, joined by “and”; a condition that tells them apart may be missing. Equal entries are not always repeated. Where only a bound is given, the exact number is not on record here.

Broadly, the inhibition is the relative decrease from the control value, in per cent. A low value points to little suppression.

On to `Cc1c(Br)c(C(F)(F)F)nn1CC(=O)N1CCc2nc3cc(-c4ccccc4)[nH]n3c(=O)c2C1` [PAT1inh-B01], for which the “time to 50% inhibition of PAT1-mediated Cl-/I- exchange” value in experiment [1] (1 μM) is “approximately 3 minutes”. Further, the IC50 in experiment [1] (FRT cells expressing PAT1 and YFP, read-out: IC50, inhibition of PAT1-mediated Cl-/I- exchange) was ~350 nM and 350 nM. Also, the inhibition at 25 µM in experiment [1] (FRT, 25 μM, primary screen) is over 75%. In addition, the “reversibility of inhibition following washout” value in experiment [1] (data not shown) is reported as “fully reversible”. For the same compound, the “inhibition of TMEM16A” value in experiment [2] is recorded as “did not significantly inhibit”.
